# Assay results reported in patent US10787450B2 (BRISTOL-MYERS SQUIBB COMPANY, priority 2016, dated 2020).
# pIC50: −log10 of the molar value. Where a name gives a salt, the structure may show the parent alone.
# Target: ROCK2 (Homo sapiens (Human), UniProt O75116)
# Assay: ROCK2 kinase inhibition assay (FITC peptide substrate, LABCHIP 3000 Reader)
# Assay type: biochemical
# Conditions: 5 μM ATP, 1.5 μM peptide substrate
# Procedure: The effectiveness of compounds of the present invention as ROCK inhibitors can be determined in a 30 μL assay containing 20 mM HEPES, pH 7.5, 20 mM MgCl2, 0.015% Brij-35, 4 mM DTT, 5 μM ATP and 1.5 μM peptide substrate (FITC-AHA-AKRRRLSSLRA-OH) (SEQ ID NO. 1). Compounds were dissolved in DMSO so that the final concentration of DMSO was <2%, and the reaction was initiated with Rho kinase variants. After incubation, the reaction was terminated by the addition of EDTA and the phosphorylated and non-phosphorylated peptides separated using a LABCHIP® 3000 Reader (Caliper Life Sciences). […] Compounds were tested in dose-response format, and the inhibition of kinase activity was calculated at each concentration of compound. The inhibition data were fit using a curve-fitting program to determine the IC50; i.e., the concentration of compound required to inhibit 50% of kinase activity.
# Representative examples were tested in the ROCK2 assay described above and found having ROCK2 inhibitory activity.
# Chain of ROCK2 (O75116 whole entry, species assumed): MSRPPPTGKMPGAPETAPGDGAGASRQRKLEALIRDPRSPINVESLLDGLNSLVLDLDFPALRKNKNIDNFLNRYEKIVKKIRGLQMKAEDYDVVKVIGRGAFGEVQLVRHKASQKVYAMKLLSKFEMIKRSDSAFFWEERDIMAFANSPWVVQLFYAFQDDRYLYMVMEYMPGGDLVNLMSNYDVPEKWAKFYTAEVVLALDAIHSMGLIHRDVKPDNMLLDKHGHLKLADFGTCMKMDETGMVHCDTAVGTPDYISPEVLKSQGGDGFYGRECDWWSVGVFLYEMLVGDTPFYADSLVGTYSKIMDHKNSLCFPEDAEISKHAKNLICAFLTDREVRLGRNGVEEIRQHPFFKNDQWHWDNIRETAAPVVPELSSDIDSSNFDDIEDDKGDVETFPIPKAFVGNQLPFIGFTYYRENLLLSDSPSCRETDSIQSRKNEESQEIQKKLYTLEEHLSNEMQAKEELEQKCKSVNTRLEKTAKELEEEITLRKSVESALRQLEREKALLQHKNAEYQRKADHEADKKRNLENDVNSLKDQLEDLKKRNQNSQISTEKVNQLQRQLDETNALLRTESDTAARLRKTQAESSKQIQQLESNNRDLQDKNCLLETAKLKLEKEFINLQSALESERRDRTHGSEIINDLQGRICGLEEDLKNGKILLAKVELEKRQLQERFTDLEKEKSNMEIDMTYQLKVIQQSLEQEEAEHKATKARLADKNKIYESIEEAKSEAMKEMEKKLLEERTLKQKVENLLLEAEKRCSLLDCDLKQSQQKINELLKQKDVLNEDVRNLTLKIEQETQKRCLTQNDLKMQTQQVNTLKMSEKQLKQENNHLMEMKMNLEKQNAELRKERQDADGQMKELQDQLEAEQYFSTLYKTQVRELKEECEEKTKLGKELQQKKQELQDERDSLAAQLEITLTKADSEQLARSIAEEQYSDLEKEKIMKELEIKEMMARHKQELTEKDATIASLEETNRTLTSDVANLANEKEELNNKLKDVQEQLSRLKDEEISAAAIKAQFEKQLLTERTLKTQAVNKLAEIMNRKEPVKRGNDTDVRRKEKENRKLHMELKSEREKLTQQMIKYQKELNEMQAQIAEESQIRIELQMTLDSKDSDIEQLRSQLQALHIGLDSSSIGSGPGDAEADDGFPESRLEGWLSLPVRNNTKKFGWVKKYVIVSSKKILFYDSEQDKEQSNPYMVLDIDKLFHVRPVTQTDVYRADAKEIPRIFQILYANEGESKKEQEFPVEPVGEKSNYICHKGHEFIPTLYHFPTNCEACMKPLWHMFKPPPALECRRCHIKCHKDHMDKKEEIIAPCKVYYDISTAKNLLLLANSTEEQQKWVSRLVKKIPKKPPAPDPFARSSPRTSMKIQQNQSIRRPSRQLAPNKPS
row,pIC50,SMILES
1,6.60 to 7.52,"CN(C)C(=O)c1cccc(CN2C(=O)N(c3ccc(-c4cn[nH]c4)cc3)CC23CCOCC3)c1 [Example 42, 3-((3-(4-(1H-pyrazol-4-yl)phenyl)-2-oxo-8-oxa-1,3-diazaspiro[4.5]decan-1-yl)methyl)-N,N-dimethylbenzamide]"
2,> 8.52,"COc1cccc(CN2C(=O)N(c3ccc(-c4cn[nH]c4)cc3)CC23CCN(C(=O)C2CCOCC2)CC3)c1 [Example 173, 3-(4-(1H-pyrazol-4-yl)phenyl)-1-(3-methoxybenzyl)-8-(tetrahydro-2H-pyran-4-carbonyl)-1,3,8-triazaspiro[4.5]decan-2-one, TFA]"
3,> 8.52,"CCOC(=O)N1CCC2(CC1)CN(c1ccc(-c3cn[nH]c3)cc1)C(=O)N2Cc1cccc(OC)c1 [Example 96, ethyl 3-(4-(1H-pyrazol-4-yl)phenyl)-1-(3-methoxybenzyl)-2-oxo-1,3,8-triazaspiro[4.5]decane-8-carboxylate]"
4,> 8.52,"CCc1nc(N2CC3(CCN(C(=O)CO)CC3)N(Cc3cccc(OC)c3)C2=O)ccc1-c1cn[nH]c1 [Example 184, 3-(6-ethyl-5-(1H-pyrazol-4-yl)pyridin-2-yl)-8-(2-hydroxyacetyl)-1-(3-methoxybenzyl)-1,3,8-triazaspiro[4.5]decan-2-one]"
5,> 8.52,"COc1cccc(CN2C(=O)N(c3ccc(-c4cn[nH]c4)c(OC)n3)CC23CCN(CCC(F)(F)F)CC3)c1 [Example 136, 3-(6-methoxy-5-(1H-pyrazol-4-yl)pyridin-2-yl)-1-(3-methoxybenzyl)-8-(3,3,3-trifluoropropyl)-1,3,8-triazaspiro[4.5]decan-2-one]"
6,7.52 to 8.52,"COc1cccc(CN2C(=O)N(c3ccc(-c4cn[nH]c4)c(C)n3)CC23CCNCC3)c1 [Example 74, 1-(3-methoxybenzyl)-3-(6-methyl-5-(1H-pyrazol-4-yl)pyridin-2-yl)-1,3,8-triazaspiro[4.5]decan-2-one]"
7,7.52 to 8.52,"COc1cccc(CN2C(=O)N(c3ccc(-c4cn[nH]c4)cn3)CC23CCN(C(=O)C(F)F)CC3)c1 [Example 194, 3-(5-(1H-pyrazol-4-yl)pyridin-2-yl)-8-(2,2-difluoroacetyl)-1-(3-methoxybenzyl)-1,3,8-triazaspiro[4.5]decan-2-one]"
8,> 8.52,"COCC(=O)N1CCC2(CC1)CN(c1ccc(-c3cn[nH]c3)c(OC)n1)C(=O)N2Cc1cccc(OC)c1 [Example 219, 3-(6-methoxy-5-(1H-pyrazol-4-yl)pyridin-2-yl)-8-(2-methoxyacetyl)-1-(3-methoxybenzyl)-1,3,8-triazaspiro[4.5]decan-2-one]"
9,5.52 to 6.60,"COc1cccc(NC2C(=O)N(c3ccc(-c4cn[nH]c4)cc3)CC23CN(C(=O)C2COC2)C3)c1 (stereo not drawn) [Example 245, 6-(4-(1H-pyrazol-4-yl)phenyl)-8-((3-methoxy-phenyl)amino)-2-(oxetane-3-carbonyl)-2,6-diazaspiro [3.4]octan-7-one]"
10,> 8.52,"O=C(NCCO)c1cccc(CN2C(=O)N(c3ccc(-c4cn[nH]c4)cc3)CC23CCOCC3)c1 [Example 36, 3-((3-(4-(1H-pyrazol-4-yl)phenyl)-2-oxo-8-oxa-1,3-diazaspiro[4.5]decan-1-yl)methyl)-N-(2-hydroxyethyl)benzamide]"
11,7.52 to 8.52,"CN(C)C1CN(C(=O)c2cccc(CN3C(=O)N(c4ccc(-c5cn[nH]c5)cc4)CC34CCOCC4)c2)C1 [Example 46, 3-(4-(1H-pyrazol-4-yl)phenyl)-1-(3-(3-(dimethylamino)azetidine-1-carbonyl)benzyl)-8-oxa-1,3-diazaspiro[4.5]decan-2-one]"
12,7.52 to 8.52,"COc1cccc(CN2C(=O)N(c3ccc(-c4cn[nH]c4)cn3)CC23CCNCC3)c1 [Example 73, 3-(5-(1H-pyrazol-4-yl)pyridin-2-yl)-1-(3-methoxybenzyl)-1,3,8-triazaspiro[4.5]decan-2-one]"
13,> 8.52,"COc1nc(N2CC3(CCN(C(=O)C(C)(C)CO)CC3)N(Cc3cccc(F)c3C)C2=O)ccc1-c1cn[nH]c1 [Example 228, 1-(3-fluoro-2-methylbenzyl)-8-(3-hydroxy-2,2-dimethylpropanoyl)-3-(6-methoxy-5-(1H-pyrazol-4-yl)pyridin-2-yl)-1,3,8-triazaspiro[4.5]decan-2-one]"
14,> 8.52,"COc1nc(N2CC3(CCN(C(C)=O)CC3)N(Cc3cccc(F)c3C)C2=O)ccc1-c1cn[nH]c1 [Example 86, 8-acetyl-1-(3-fluoro-2-methylbenzyl)-3-(6-methoxy-5-(1H-pyrazol-4-yl)pyridin-2-yl)-1,3,8-triazaspiro[4.5]decan-2-one]"
15,> 8.52,"CCc1nc(N2CC3(CCN(C(=O)C4CCCO4)CC3)N(Cc3cccc(OC)c3)C2=O)ccc1-c1cn[nH]c1 (stereo not drawn) [Example 207, 3-(6-ethyl-5-(1H-pyrazol-4-yl)pyridin-2-yl)-1-(3-methoxybenzyl)-8-(tetrahydrofuran-2-carbonyl)-1,3,8-triazaspiro[4.5]decan-2-one]"
16,> 8.52,"COc1cccc(CN2C(=O)N(c3ccc(-c4cn[nH]c4)c(OC)n3)CC23CCN(C(C)=O)CC3)c1 [Example 85, 8-acetyl-3-(6-methoxy-5-(1H-pyrazol-4-yl)pyridin-2-yl)-1-(3-methoxybenzyl)-1,3,8-triazaspiro[4.5]decan-2-one]"
17,6.60 to 7.52,"COc1cccc(CN2C(=O)N(c3ncc(-c4cn[nH]c4)c(OC)n3)CC23CCN(C(=O)C(C)C)CC3)c1 [Example 215, 8-isobutyryl-3-(4-methoxy-5-(1H-pyrazol-4-yl)pyrimidin-2-yl)-1-(3-methoxybenzyl)-1,3,8-triazaspiro[4.5]decan-2-one]"
18,> 8.52,"COc1cccc(CN2C(=O)N(c3ccc(-c4cn[nH]c4)cc3)CC23CCN(C(=O)C(C)(C)O)CC3)c1 [Example 192, 3-(4-(1H-pyrazol-4-yl)phenyl)-8-(2-hydroxy-2-methylpropanoyl)-1-(3-methoxybenzyl)-1,3,8-triazaspiro[4.5]decan-2-one]"
19,7.52 to 8.52,"COc1cccc(CN2C(=O)N(c3ccc(-c4cn[nH]c4)cn3)CC23CCN(C(=O)OC(C)(C)C)CC3)c1 [Example 51, tert-butyl 3-(5-(1H-pyrazol-4-yl)pyridin-2-yl)-1-(3-methoxybenzyl)-2-oxo-1,3,8-triazaspiro[4.5]decane-8-carboxylate]"
20,7.52 to 8.52,"CCc1nc(N2CC3(CCN(C(=O)C4(O)CC4)CC3)N(Cc3cccc(OC)c3)C2=O)ccc1-c1cn[nH]c1 [Example 216, 3-(6-ethyl-5-(1H-pyrazol-4-yl)pyridin-2-y)-8-(1-hydroxycyclopropanecarbonyl)-1-(3-methoxybenzyl)-1,3,8-triazaspiro[4.5]decan-2-one]"
21,> 8.52,"CCc1nc(N2CC3(CCN(C(=O)CC(C)C)CC3)N(Cc3cccc(OC)c3)C2=O)ccc1-c1cn[nH]c1 [Example 200, 3-(6-ethyl-5-(1H-pyrazol-4-yl)pyridin-2-yl)-1-(3-methoxybenzyl)-8-(3-methylbutanoyl)-1,3,8-triazaspiro[4.5]decan-2-one]"
22,5.52 to 6.60,"COc1cccc(NC2C(=O)N(c3ccc(-c4cn[nH]c4)cc3)CC23CN(C(=O)C(C)(C)O)C3)c1 (stereo not drawn) [Example 246, 6-(4-(1H-pyrazol-4-yl)phenyl)-2-(2-hydroxy-2-methylpro-panoyl)-8-((3-methoxy-phenyl)amino)-2,6-diazaspiro [3.4]octan-7-one]"
23,> 8.52,"CC(C)CNC(=O)c1cccc(CN2C(=O)N(c3ccc(-c4cn[nH]c4)cc3)CC23CCOCC3)c1 [Example 35, 3-((3-(4-(1H-pyrazol-4-yl)phenyl)-2-oxo-8-oxa-1,3-diazaspiro[4.5]decan-1-yl)methyl)-N-isobutylbenzamide]"
24,5.52 to 6.60,"COc1cccc(NC2C(=O)N(c3ccc(-c4cn[nH]c4)cc3)CC23CCN(C(C)=O)CC3)c1 (stereo not drawn) [Example 249, -(4-(1H-pyrazol-4-yl)phenyl)-8-acetyl-4-((3-methoxy-phenyl)amino)-2,8-diazaspiro [4.5]decan-3-one]"
25,6.60 to 7.52,"COc1cccc(CN2C(=O)N(c3ccc(-c4cn[nH]c4)cc3)CC23CCOCC3)c1F [Example 29, 3-(4-(1H-pyrazol-4-yl)phenyl)-1-(2-fluoro-3-methoxybenzyl)-8-oxa-1,3-diazaspiro[4.5]decan-2-one]"
26,6.60 to 7.52,"Cc1ccc(F)cc1CN1C(=O)N(c2ccc(-c3cn[nH]c3)cc2)CC12CCOCC2 [Example 27, 3-(4-(1H-pyrazol-4-yl)phenyl)-1-(5-fluoro-2-methylbenzyl)-8-oxa-1,3-diazaspiro[4.5]decan-2-one]"
27,7.52 to 8.52,"COc1cccc(CN2C(=O)N(c3ncc(-c4cn[nH]c4)c(OC)n3)CC23CCN(C(=O)[C@@H]2CC2(F)F)CC3)c1 [Example 213, (S)-8-(2,2-difluorocyclopropane-carbonyl)-3-(4-methoxy-5-(1H-pyrazol-4-yl)pyrimidin-2-yl)-1-(3-methoxybenzyl)-1,3,8-triazaspiro[4.5]decan-2-one]"
28,7.52 to 8.52,O=C1N(c2ccc(-c3cn[nH]c3)cc2)CC2(CCNCC2)N1Cc1cc(F)cc(F)c1 [Example 68]
29,> 8.52,"CCCOC(=O)N1CCC2(CC1)CN(c1ccc(-c3cn[nH]c3)cc1)C(=O)N2Cc1cccc(OC)c1 [Example 100, propyl 3-(4-(1H-pyrazol-4-yl)phenyl)-1-(3-methoxybenzyl)-2-oxo-1,3,8-triazaspiro[4.5]decane-8-carboxylate]"

row,SMILES,pIC50
1,"CCc1nc(N2CC3(CCN(CC(F)F)CC3)N(Cc3cccc(F)c3C)C2=O)ccc1-c1cn[nH]c1 [Example 130, 8-(2,2-difluoroethyl)-3-(6-ethyl-5-(1H-pyrazol-4-yl)pyridin-2-yl)-1-(3-fluoro-2-methylbenzyl)-1,3,8-triazaspiro[4.5]decan-2-one]",7.52 to 8.52
